Assay results from PubChem BioAssay AID179 (DTP/NCI, 2004).
pEC50, pIC50: −log10 of the molar value. Activity calls are given as the source filed them.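 How the source made its calls: active means compounds giving half or more protection of infected cells from virus-caused growth loss, again on retest; inactive means the rest.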 Where a SMILES comes first, the peptide text is derived from it. The star is where a group is joined. Trt = c1ccc(C(c2ccccc2)(c2ccccc2)*)cc1; OtBu = CC(C)(C)O*; X14 = CC(C)COC*

Tested on: CEM cells HIV-1 protection, formazan growth assay
Experiment: NCI AIDS Antiviral Assay
Conditions: for pIC50: measured here: growth of uninfected CEM cells
In short: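 Protection of CEM cells against HIV-1 measured as cell growth via soluble formazan read-out, with five concentrations tested on both infected and uninfected cells; failure to protect may reflect toxicity.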

## Cc1ccc(S(=O)(=O)Oc2nc3ccccc3nc2N(S(=O)(=O)c2ccc(C)cc2)S(=O)(=O)c2ccc(C)cc2)cc1
  pEC50: < 3.70
  pIC50: 4.76

## Cc1occc1C(=S)Nc1ccc(Cl)c(C(=O)OCC(F)(F)F)c1
  pEC50: 7.71
  pIC50: 4.72

## CNC1(C(=O)O)CC1
  pEC50: < 3.70
  pIC50: < 3.70

## CCOC(=O)c1c(NC(=S)NCc2ccccc2)sc2c1CCN(C)C2
  pEC50: < 3.82
  pIC50: 4.02

## COc1cc2cc(C(=O)N3CC(CCl)c4ccc(N(C)C)cc43)[nH]c2c(OC)c1OC (stereo unspecified)
  pEC50: < 5.70
  pIC50: 6.86

## COc1cccc(N2C(=O)C3CC(CC(C)(C)C)c4c([nH]c5ccccc45)C3C2=O)c1 (stereo unspecified)
  pEC50: < 3.70
  pIC50: 4.37

## Cc1cccc2c1[C@]13OC(C)[C@]4(C)CC5OC(=O)[C@@]1(C)[C@@H]5[C@]34C(=O)O2 (stereo partly specified)
  pEC50: < 3.70
  pIC50: < 3.70

## CC(C)COCSCC(NC(=O)CNC(=O)C(Cc1ccccc1)NC(=O)CNC(=O)C(N)CSC(c1ccccc1)(c1ccccc1)c1ccccc1)C(=O)NC(Cc1ccccc1)C(=O)NCC(=O)OC(C)(C)C (stereo unspecified) (H-C(Trt)GFGC(X14)FG-OtBu; configuration not given here)
  pEC50: < 4.62
  pIC50: < 4.62

## NNC(=O)C1CCC(=O)N1S(=O)(=O)c1ccccc1 (stereo unspecified)
  outcome: inactive

## CN(C)CCNCc1ccc(-c2cccc(-c3ccc(CNCCN(C)C)cc3)n2)cc1
  pEC50: < 3.69
  pIC50: 5.61

## COC(=O)/C=C1\C[C@H]2O[C@@](O)(C1)[C@H](C)C(=O)O[C@H]1C[C@@H](C=C(C)C)O[C@@H](CC3(O)O[C@H](CC[C@H]2O)[C@@H](C)[C@]2(O)CC[C@@H](C)C(=O)C32)[C@H]1C (stereo partly specified)
  outcome: inactive

## CNC(=O)CCC(NC(C)=O)C(=O)NC(Cc1ccc(NC(=O)CCCCC(C)=O)cc1)C(=O)NC(CCC(=O)NC)C(=O)NC (stereo unspecified)
  pEC50: < 3.70
  pIC50: < 3.70

## [O]=[Sb][c]1ccc(Cl)cc1
  pEC50: < 3.70
  pIC50: 5.58

## CCOC(=O)C(NS(=O)(=O)c1ccccc1)(C(F)(F)F)P(=O)(OCC(C)C)OCC(C)C (stereo unspecified)
  pEC50: < 3.70
  pIC50: 4.19

## O=C(O)OC12CCCCCC1C(=O)C1CCCCC12 (stereo unspecified)
  pEC50: < 3.70
  pIC50: < 3.70

## Cc1ccccc1NC(=O)/C(=N\NC(N)=S)C(C#N)c1ccccc1 (stereo unspecified)
  pEC50: < 3.73
  pIC50: < 3.73

## COC(=O)C1=C(C(=O)OC)C2C=CC1C1C(Cl)=C(Cl)C21 (stereo unspecified)
  outcome: inactive

## CCN(C(=O)N[C@H](C(=O)N[C@@H](C)C(=O)OC)C(C)C)c1ccccc1
  pEC50: < 3.70
  pIC50: 4.45

## O=C(N/C(=C\c1cccc([N+](=O)[O-])c1)c1nc2ccc([N+](=O)[O-])cc2[nH]1)c1ccccc1
  outcome: inactive

## CCOC(=O)c1cc(C2CCN(CC(C)CC)C2=S)c(-c2cc(C)no2)[nH]1 (stereo unspecified)
  pEC50: < 3.70
  pIC50: < 3.70

## CC[N+](C)(CC)CCNC(=O)C(O)(c1ccccc1)c1ccccc1
  pEC50: < 3.70
  pIC50: < 3.70

## O=C1NCCCC12CCCNC2=O
  pEC50: < 4.68
  pIC50: < 4.68

## COc1ccc(C2c3cc4c(cc3OC(N3CCOCC3)C2C)OCO4)c(OC)c1OC (stereo unspecified)
  pEC50: < 3.70
  pIC50: 5.02

## CC(=S)NC=C(C(N)=O)C(N)=O
  pEC50: < 3.70
  pIC50: < 3.70

## Cn1cnc([N+](=O)[O-])c1Sc1nnnn1C
  pEC50: < 2.99
  pIC50: 5.26

## Clc1cc(Cl)c2c(c1)[nH]c1nc3ccccc3nc12
  pEC50: < 4.74
  pIC50: < 4.74

## OC1CSCCSCCCSCCSC1
  pEC50: < 3.90
  pIC50: < 3.90

## CCN(CC)C(=O)N1CN(c2ccccc2)C2(CCN(CCCSc3ccc(F)cc3)CC2)C1=O
  pEC50: < 3.70
  pIC50: 5.01

## CC1(C)COC(c2ccccc2Br)=N1
  pEC50: < 3.70
  pIC50: < 3.70

## CC1=CC2OC3CC(OC(=O)/C=C/C=C/C(OCCC4=CC(=O)OC4)C(C)O)C(C)(C2(CO)CC1)C31CO1 (stereo unspecified)
  pEC50: < 4.17
  pIC50: 5.82

## Nc1nc(N)c(N=O)c(Nc2ccc(O)cc2)n1
  pEC50: < 3.70
  pIC50: 3.77

## O=C1/C(=C\c2ccc([N+](=O)[O-])cc2)N(S(=O)(=O)c2ccccc2)c2ncccc21
  pEC50: < 3.70
  pIC50: 4.87

## COc1ccc(-c2c(C(C)=O)c(C)n(C3OC(COC(C)=O)C(OC(C)=O)C(OC(C)=O)C3OC(C)=O)c(=S)c2C#N)cc1 (stereo unspecified)
  pEC50: < 3.70
  pIC50: 4.06

## COc1cccc(C2C3=C(COC3=O)Oc3cc4c(cc32)OCO4)c1 (stereo unspecified)
  pEC50: < 5.70
  pIC50: 7.07

## CC(=O)Nc1ccc(C2[C@H]3C(=O)N(c4ccc(Cc5ccc(N6C(=O)[C@@H]7ON(c8ccccc8)C(c8ccc(NC(C)=O)cc8)[C@@H]7C6=O)cc5)cc4)C(=O)[C@H]3ON2c2ccccc2)cc1 (stereo partly specified)
  pEC50: < 5.22
  pIC50: < 5.22

## O=c1c2cc([N+](=O)[O-])ccc2n2n1Cc1ccccc1C2
  pEC50: < 3.70
  pIC50: < 3.70

## NC(N)=Nc1nn[nH]n1
  pEC50: < 3.70
  pIC50: < 3.70

## O=C(/C=C/c1ccccc1)NC1C=Nc2ccccc2NC1=O (stereo unspecified)
  pEC50: 3.83
  pIC50: < 3.70

## Cn1c(=O)c2nc(-c3ccc(Cl)c(Cl)c3)c(-c3ccc(Cl)c(Cl)c3)nc2n(C)c1=O
  pEC50: < 3.70
  pIC50: 4.53

## CC(=O)/C=C(/C)[O-].CCN(CC)CCNCCN.O=N[O-].[Co+3].[O-][Cl+3]([O-])([O-])[O-]
  pEC50: < 3.70
  pIC50: < 3.70
